According to US20060069132A1, “Azolecarboxamide herbicides” (priority 2004, published 2006):
Like-named read-outs stand apart in the source and are kept apart here.

What was measured:
large crabgrass = test: Test A pre-/postemergence herbicide test; assay type: in vivo, Digitaria sanguinalis; conditions: Digitaria sanguinalis, 240 h; for pest or weed control at 500 g/ha: 500 g ai/ha; for pest or weed control at 2000 g/ha: 2000 g ai/ha
Procedure, shortened: (§1)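 Pre: seeded sandy loam, directed soil spray, compound in non-phytotoxic solvent + surfactant. Post: 1–2-leaf plants (2–10 cm), sprayed to runoff. Greenhouse ~10 d; visual injury vs untreated, 0–100 scale.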

giant foxtail = test: Test A pre-/postemergence herbicide test; assay type: in vivo, Setaria faberi; conditions: Setaria faberi, 240 h; for pest or weed control at 500 g/ha: 500 g ai/ha; for pest or weed control at 2000 g/ha: 2000 g ai/ha
Procedure, shortened: as §1

morningglory = test: Test A pre-/postemergence herbicide test; assay type: in vivo, Ipomoea spp.; conditions: Ipomoea, 240 h; for pest or weed control at 500 g/ha: 500 g ai/ha; for pest or weed control at 2000 g/ha: 2000 g ai/ha
Procedure, shortened: as §1

barnyardgrass = test: Test C flooded paddy test; assay type: in vivo, Echinochloa crus-galli; conditions: for pest or weed control at 62 g/ha / pest or weed control at 125 g/ha / pest or weed control at 250 g/ha / pest or weed control at 500 g/ha: Echinochloa crus-galli; for pest or weed control at 62 g/ha / pest or weed control at 125 g/ha / pest or weed control at 250 g/ha: read-out: Barnyardgrass plant response rating; for pest or weed control at 500 g/ha: read-out: Plant response rating, Barnyardgrass
Procedure, shortened: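 Ratings (0 = no effect, 100 = complete control) come from visual comparison with untreated plants after 12 to 14 days in the greenhouse. Treatment was postemergence at the 1- to 4-leaf stage (2–18 cm), or at the 2-leaf stage for the flooded paddy barnyardgrass.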

ducksalad = test: Test C flooded paddy test; assay type: in vivo, Heteranthera limosa; conditions: for pest or weed control at 62 g/ha / pest or weed control at 125 g/ha / pest or weed control at 250 g/ha / pest or weed control at 500 g/ha: Heteranthera limosa; for pest or weed control at 500 g/ha: read-out: Plant response rating, Ducksalad
[1] = post-emergence, Postemergence, 0 to 100 scale, 0 no effect, 100 complete control, read-out: Crabgrass, Large plant response rating
[2] = post-emergence, Postemergence, 0 to 100 scale, 0 no effect, 100 complete control, read-out: Plant response rating, Crabgrass, Large
[3] = pre-emergence, Preemergence, visual rating, 0 to 100 scale (0 no effect, 100 complete control), read-out: Crabgrass, Large plant response rating
[4] = post-emergence, Postemergence, 0 to 100 scale, 0 no effect, 100 complete control, read-out: Foxtail, Giant plant response rating
[5] = post-emergence, Postemergence, 0 to 100 scale, 0 no effect, 100 complete control, read-out: Plant response rating, Foxtail, Giant
[6] = pre-emergence, Preemergence, visual rating, 0 to 100 scale (0 no effect, 100 complete control), read-out: Foxtail, Giant plant response rating
[7] = post-emergence, Postemergence, 0 to 100 scale, 0 no effect, 100 complete control, read-out: Morningglory plant response rating
[8] = post-emergence, Postemergence, 0 to 100 scale, 0 no effect, 100 complete control, read-out: Plant response rating, Morningglory
[9] = pre-emergence, Preemergence, visual rating, 0 to 100 scale (0 no effect, 100 complete control), read-out: Morningglory plant response rating
[10] = 62 g ai/ha, scale 0 to 100 (0 no effect, 100 complete control)
[11] = 125 g ai/ha, scale 0 to 100 (0 no effect, 100 complete control)
[12] = 250 g ai/ha, scale of 0 to 100, 0 is no effect, 100 is complete control
[13] = 500 g ai/ha, visual rating after 12 to 14 days, scale 0 to 100 (0 no effect, 100 complete control)
[14] = 62 g ai/ha, scale 0 to 100 (0 no effect, 100 complete control), read-out: Ducksalad plant response rating
[15] = 125 g ai/ha, scale 0 to 100 (0 no effect, 100 complete control), read-out: Ducksalad plant response rating
[16] = 250 g ai/ha, scale of 0 to 100, 0 is no effect, 100 is complete control, read-out: Ducksalad plant response rating

Structure (SMILES)	pest or weed control at 500 g/ha (large crabgrass; [1]) [%]	pest or weed control at 2000 g/ha (large crabgrass; [2]) [%]	pest or weed control at 2000 g/ha (large crabgrass; [3]) [%]	pest or weed control at 500 g/ha (giant foxtail; [4]) [%]	pest or weed control at 2000 g/ha (giant foxtail; [5]) [%]	pest or weed control at 2000 g/ha (giant foxtail; [6]) [%]	pest or weed control at 500 g/ha (morningglory; [7]) [%]	pest or weed control at 2000 g/ha (morningglory; [8]) [%]	pest or weed control at 2000 g/ha (morningglory; [9]) [%]	pest or weed control at 62 g/ha (barnyardgrass; [10]) [%]	pest or weed control at 125 g/ha (barnyardgrass; [11]) [%]	pest or weed control at 250 g/ha (barnyardgrass; [12]) [%]	pest or weed control at 500 g/ha (barnyardgrass; [13]) [%]	pest or weed control at 125 g/ha (ducksalad; [15]) [%]	pest or weed control at 250 g/ha (ducksalad; [16]) [%]	pest or weed control at 500 g/ha (ducksalad; [13]) [%]	also measured
CCn1nc(C(C)(C)C)cc1C(=O)Nc1cccc(C(=O)OC)n1 [Compound 143, methyl 6-[[[3-(1,1-dimethylethyl)-1-ethyl-1H-pyrazol-5-yl]carbonyl]amino]-2-pyridinecarboxylate]	20	30	15	10	15	0	10	25	0								pest or weed control at 500 g/ha (large crabgrass; [3]): 0%; pest or weed control at 500 g/ha (giant foxtail; [6]): 0%; pest or weed control at 500 g/ha (morningglory; [9]): 0%
CCn1nc(C(C)(C)C)cc1C(=O)Nc1cc(C(=O)OC)ccn1 [Compound 151, methyl 2-[[[3-(1,1-dimethylethyl)-1-ethyl-1H-pyrazol-5-yl]carbonyl]amino]-4-pyridinecarboxylate]	5	10	0	10	10	0	10	20	0								pest or weed control at 500 g/ha (large crabgrass; [3]): 0%; pest or weed control at 500 g/ha (giant foxtail; [6]): 0%; pest or weed control at 500 g/ha (morningglory; [9]): 0%
CCn1nc(C(C)(C)C)cc1C(=O)Nc1ccc(F)c(C(=O)N(C)C)c1 [Compound 236, N-[3-[(dimethylamino)carbonyl]-4-fluorophenyl]-3-(1,1-dimethylethyl)-1-ethyl-1H-pyrazole-5-carboxamide]										0	0	15	40	40	55	80	pest or weed control at 62 g/ha (ducksalad; [14]): 0%
CCNC(=O)c1cc(NC(=O)c2cn(C(C)(C)C)nc2CC)ccc1F [Compound 241, 1-(1,1-dimethylethyl)-3-ethyl-N-[3-[(ethylamino)carbonyl]-4-fluorophenyl]-1H-pyrazole-4-carboxamide]										0	0	0	30	0	0	15	pest or weed control at 62 g/ha (ducksalad; [14]): 0%
CCOC(=O)c1ccc(F)c(NC(=O)C2CC(C(C)(C)C)=NN2CC)c1 (centres unmarked) [Compound 267, ethyl 3-[[[3-(1,1-dimethylethyl)-1-ethyl-4,5-dihydro-1H-pyrazol-5-yl]carbonyl]amino]-4-fluorobenzoate]	45	75	90	30	55	85	30	45	45								pest or weed control at 500 g/ha (large crabgrass; pre-emergence, preemergence, visual injury, 0 to 100 scale (0 no effect, 100 complete control), read-out: Crabgrass, Large plant response rating): 15%; pest or weed control at 500 g/ha (giant foxtail; pre-emergence, preemergence, visual injury, 0 to 100 scale (0 no effect, 100 complete control), read-out: Foxtail, Giant plant response rating): 75%; pest or weed control at 500 g/ha (morningglory; pre-emergence, preemergence, visual injury, 0 to 100 scale (0 no effect, 100 complete control), read-out: Morningglory plant response rating): 20%
CCOC(=O)c1ccc(F)c(NC(=O)c2cc(C3(C)CC3)nn2CC)c1 [Compound 296]																	Barnyardgrass plant response rating (barnyardgrass; [10]): 15; Barnyardgrass plant response rating (barnyardgrass; [11]): 25; Barnyardgrass plant response rating (barnyardgrass; [12]): 50; Plant response rating, Barnyardgrass (barnyardgrass; [13]): 65; Ducksalad plant response rating (ducksalad; 62 g ai/ha, scale 0 to 100): 0; Ducksalad plant response rating (ducksalad; [11]): 0; Ducksalad plant response rating (ducksalad; [12]): 40; Plant response rating, Ducksalad (ducksalad; [13]): 70
CCc1nn(C(C)C)nc1C(=O)Nc1cccc(C(=O)N(C)C)c1 [Compound 358, N-[3-[(dimethylamino)carbonyl)phenyl]-5-ethyl-2-(1-methylethyl)-2H-1,2,3-triazole-4-carboxamide]										0	60	75	85	80	90	95	pest or weed control at 62 g/ha (ducksalad; 62 g ai/ha, scale 0 to 100, read-out: Ducksalad plant response rating): 0%
